Measurements from article PMC11075139 (RSC Advances, 2024).

Assays:
[1] = for Prediction of CNS penetration: from PAMPA-BBB Pe; for BBB penetration in PAMPA assay: stated in words
CA-II = details: read-out: Ki CA-II inhibition; cited from earlier work
Aβ1–42 peptide = Aβ1–42 peptide (Homo sapiens, UniProt P05067); assay: Self-mediated Aβ1–42 aggregation assay; format: biochemical; details: for inhibition of Aβ fibrils: ThT fluorescence, after 24 hours of equimolar treatment with Aβ1–42
human CA-II = human CA-II (Homo sapiens, UniProt P00918); assay: In vitro human CA-II inhibition assay; format: biochemical
eqBChE = eqBChE (Equus caballus, UniProt P81908); assay: Butyrylcholinesterase inhibition assay; format: biochemical
[2] = molecular target: electric eel acetylcholinesterase (eeAChE) (Electrophorus electricus, UniProt O42275); assay: Acetylcholinesterase inhibition assay; format: biochemical; details: for IC50: IC50 (μM) ± SEM eeAChE, mean ± SEM, n = 3; for SI (Selectivity index): Selectivity index = IC50 of BChE/IC50 of AChE
AChE = details: read-out: Ki AChE; non-competitive inhibitor; cited from earlier work
SH-SY5Y cells = assay: Cell viability/neurotoxicity assay; format: cell-based, human
in vitro = details: PAMPA

Chain of electric eel acetylcholinesterase (eeAChE) (O42275 24-633): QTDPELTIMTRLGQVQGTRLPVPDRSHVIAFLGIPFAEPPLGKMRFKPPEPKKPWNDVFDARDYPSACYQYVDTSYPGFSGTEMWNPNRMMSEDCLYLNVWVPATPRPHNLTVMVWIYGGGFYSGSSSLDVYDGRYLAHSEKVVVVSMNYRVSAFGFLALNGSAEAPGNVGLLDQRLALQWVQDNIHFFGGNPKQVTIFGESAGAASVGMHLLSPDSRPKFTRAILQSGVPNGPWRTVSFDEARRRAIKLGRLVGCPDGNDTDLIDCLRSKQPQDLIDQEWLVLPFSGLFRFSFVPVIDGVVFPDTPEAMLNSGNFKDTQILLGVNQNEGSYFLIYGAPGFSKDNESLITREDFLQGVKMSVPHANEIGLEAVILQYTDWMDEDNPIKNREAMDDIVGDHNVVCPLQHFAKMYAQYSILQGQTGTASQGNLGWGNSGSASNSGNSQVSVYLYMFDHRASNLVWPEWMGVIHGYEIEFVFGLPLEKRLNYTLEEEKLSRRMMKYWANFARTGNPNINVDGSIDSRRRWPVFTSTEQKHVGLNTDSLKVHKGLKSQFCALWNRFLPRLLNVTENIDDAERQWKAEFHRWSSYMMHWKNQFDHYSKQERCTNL
Chain of Aβ1–42 peptide (P05067 672-713): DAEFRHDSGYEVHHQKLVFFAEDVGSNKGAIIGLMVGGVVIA
Chain of eqBChE (P81908 whole entry): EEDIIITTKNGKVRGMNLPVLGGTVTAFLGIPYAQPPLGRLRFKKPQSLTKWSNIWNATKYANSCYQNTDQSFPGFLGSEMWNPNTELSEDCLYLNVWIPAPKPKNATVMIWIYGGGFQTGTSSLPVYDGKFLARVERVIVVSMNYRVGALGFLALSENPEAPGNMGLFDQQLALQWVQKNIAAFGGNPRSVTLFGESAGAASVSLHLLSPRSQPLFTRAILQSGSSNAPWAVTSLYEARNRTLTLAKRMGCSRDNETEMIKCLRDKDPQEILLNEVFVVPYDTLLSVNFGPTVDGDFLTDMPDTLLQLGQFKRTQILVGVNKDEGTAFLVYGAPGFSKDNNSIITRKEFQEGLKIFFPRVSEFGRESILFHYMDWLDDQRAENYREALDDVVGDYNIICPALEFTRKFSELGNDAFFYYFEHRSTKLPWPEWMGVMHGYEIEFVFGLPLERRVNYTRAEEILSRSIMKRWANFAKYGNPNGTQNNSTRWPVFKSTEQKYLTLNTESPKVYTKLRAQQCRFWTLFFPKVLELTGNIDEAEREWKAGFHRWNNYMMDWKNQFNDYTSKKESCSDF

| Molecule | IC50 (Aβ1–42 peptide) | IC50 (human CA-II) | IC50 (eqBChE) | IC50 [2] | SI (Selectivity index) [2] | also measured |
| --- | --- | --- | --- | --- | --- | --- |
| CCn1cc(C(=O)O)c(=O)c2cc(F)c(N3CCNC(C)C3)c(F)c21 (stereo not shown) [Lomefloxacin, reference compound] | – | – | – | – | – | Prediction of CNS penetration [1]: No (‘CNS−’ (prediction of low BBB permeation); Pe (10^−6 cm s^−1) < 1.78) |
| C[C@]12CC[C@@H]3c4ccc(O)cc4CC[C@H]3[C@@H]1CC[C@H]2O [Compound 4, α-estradiol] | – | – | – | – | – | Ki (CA-II): 40.4 µM |
| C[C@]12CC[C@@H]3c4ccc(O)cc4CC[C@H]3[C@@H]1CCC2=O [oestrone] | – | – | – | – | – | Ki (CA-II): 50.8 µM |
| C[C@]12CCC(NC(=S)Nc3ccc(S(N)(=O)=O)cc3)CC1=CC[C@@H]1[C@@H]2CC[C@]2(C)C(C(=O)CNc3c4c(cc5ccccc35)CCCC4)CC[C@@H]12 (stereo partly drawn) [Compound 28, 4-(3-((8S,9S,10R,13S,14S)-10,13-Dimethyl-17-((1,2,3,4-tetrahydroanthracen-9-yl)glycyl)-2,3,4,7,8,9,10,11,12,13,14,15,16,17-tetradecahydro-1H-cyclopenta[a]phenanthren-3-yl)thioureido)benzenesulfonamide] | 26.37 ± 0.25 µM | 31.8 ± 1.08 µM | 13.5 ± 0.09 µM | 0.32 ± 0.01 µM | 42.2 | – |
| hyocholic acid [Compound 3] | – | – | – | – | – | Ki (CA-II): 38.9 µM |
| isosarcodine | – | – | – | – | – | Ki (AChE): 21.8 µM |
| C[C@]12CCC(NC(=S)Nc3ccc(S(N)(=O)=O)cc3)CC1=CC[C@@H]1[C@@H]2CC[C@]2(C)C(C(=O)CN3c4ccccc4Sc4ccccc43)CC[C@@H]12 (stereo partly drawn) [Compound 27, 4-(3-((8S,9S,10R,13S,14S)-17-(2-(10H-Phenothiazin-10-yl)acetyl)-10,13-dimethyl-2,3,4,7,8,9,10,11,12,13,14,15,16,17-tetradecahydro-1H-cyclopenta[a]phenanthren-3-yl)thioureido)benzenesulfonamide] | 5.78 ± 0.07 µM | 5.18 ± 0.12 µM | 15.01 ± 0.03 µM | 0.094 ± 0.002 µM | 166.7 | protection of SH-SY5Y cells from the toxicity of the Aβ peptide (SH-SY5Y cells; SH-SY5Y cells incubated with Aβ1–42): effectively protected; cytotoxicity (SH-SY5Y cells; SH-SY5Y cells, 5 μM): completely non-cytotoxic; Prediction of CNS penetration [1]: High (‘CNS+’ (prediction of high BBB permeation); Pe (10^−6 cm s^−1) > 4.39); BBB penetration in PAMPA assay [1]: BBB penetrants; inhibition of Aβ fibrils (Aβ1–42 peptide): 85%; Papp (in vitro): 18.1 ×10⁻⁶ cm/s |
| COc1cc(/C=C/C(=O)CC(=O)/C=C/c2ccc(O)c(OC)c2)ccc1O [Curcumin, reference compound] | – | – | – | – | – | inhibition of Aβ fibrils (Aβ1–42 peptide): approximately 60% |
| C[C@]12CCC(NC(=S)Nc3ccc(S(N)(=O)=O)cc3)CC1=CC[C@@H]1[C@@H]2CC[C@]2(C)C(C(=O)CNCCc3ccccc3)CC[C@@H]12 (stereo partly drawn) [Compound 24, 4-(3-((8S,9S,10R,13S,14S)-10,13-Dimethyl-17-(phenethylglycyl)-2,3,4,7,8,9,10,11,12,13,14,15,16,17-tetradeca-hydro-1H-cyclopenta[a]phenanthren-3-yl)thioureido)benzenesulfonamide] | 29.6 ± 1.21 µM | 5.44 ± 0.14 µM | 12.8 ± 0.45 µM | 1.61 ± 0.1 µM | 8.0 | – |
| Cc1nnc2n1-c1ccc(Cl)cc1C(c1ccccc1)=NC2 [Alprazolam, reference compound] | – | – | – | – | – | Prediction of CNS penetration [1]: High (‘CNS+’ (prediction of high BBB permeation); Pe (10^−6 cm s^−1) > 4.39) |
| C[C@H](CCC(=O)O)[C@H]1CC[C@H]2[C@@H]3CC[C@@H]4C[C@H](O)CC[C@]4(C)[C@H]3C[C@H](O)[C@]12C [Compound 5, deoxycholic acid] | – | – | – | – | – | Ki (CA-II): 51 µM |
| CC(=O)C1CC[C@H]2[C@@H]3CC=C4CC(N)CC[C@]4(C)[C@H]3CC[C@]12C (stereo partly drawn) [Compound 12, 1-((8S,9S,10R,13S,14S)-3-amino-10,13-dimethyl-2,3,4,7,8,9,10,11,12,13,14,15,16,17-tetradecahydro-1H-cyclopenta[a]phenanthren-17-yl)ethan-1-one] | – | 73.2 ± 1.14 µM | – | 67.7 ± 1.09 µM | – | Prediction of CNS penetration [1]: High (‘CNS+’ (prediction of high BBB permeation); Pe (10^−6 cm s^−1) > 4.39); BBB penetration in PAMPA assay [1]: high BBB penetration; Papp (in vitro): 19.6 ×10⁻⁶ cm/s |
| CC(=O)C1CC[C@H]2[C@@H]3CC=C4CC(NC(=S)Nc5ccc(S(N)(=O)=O)cc5)CC[C@]4(C)[C@H]3CC[C@]12C (stereo partly drawn) [Compound 15, 4-(3-((8S,9S,10R,13S,14S)-17-Acetyl-10,13-dimethyl-2,3,4,7,8,9,10,11,12,13,14,15,16,17-tetradecahydro-1H-cyclopenta[a]phenanthren-3yl)thioureido)benzenesulfonamide] | 9.25 ± 0.17 µM | 48.9 ± 1.37 µM | 63 ± 1.23 µM | 13 ± 0.18 µM | 4.8 | viability at 5 µM (SH-SY5Y cells; Homo sapiens, SH-SY5Y, read-out: cell viability): ~75%; inhibition of Aβ fibrils (Aβ1–42 peptide): approximately 60% |
| C[C@]12CCC(NC(=S)Nc3ccc(S(N)(=O)=O)cc3)CC1=CC[C@@H]1[C@@H]2CC[C@]2(C)C(C(=O)CNCc3ccccc3)CC[C@@H]12 (stereo partly drawn) [Compound 25, 4-(3-((8S,9S,10R,13S,14S)-17-(Benzylglycyl)-10,13-di-methyl-2,3,4,7,8,9,10,11,12,13,14,15,16,17-tetradeca-hydro-1H-cyclopenta[a]phenanthren-3-yl)thioureido)benzenesulfonamide] | 12.8 ± 0.15 µM | 1.02 ± 0.01 µM | 11.27 ± 0.11 µM | 0.98 ± 0.1 µM | 11.5 | – |
